Like-named read-outs stand apart in the source and are kept apart here. Where a SMILES comes first, the peptide text is derived from it. Bridges are numbered along the chain shown (N, C = ends). [ ]: non-standard residue; d: D form. The star is where a group is joined. hPhe(3-Cl-4-CF3) = N[C@@H](CCc1ccc(C(F)(F)F)c(Cl)c1)C(=O)O; NPrPhe(4-CF3) = CCCN[C@@H](Cc1ccc(C(F)(F)F)cc1)C(=O)O; NMeGly(cPent) = CN[C@H](C(=O)O)C1CCCC1; Pro(4,4-F2) = O=C(O)[C@@H]1CC(F)(F)CN1; Hyp = O=C(O)[C@@H]1C[C@@H](O)CN1; NMeD = CN[C@@H](CC(=O)O)C(=O)O; NMeL = CN[C@@H](CC(C)C)C(=O)O; NMeNva = CCC[C@H](NC)C(=O)O; Morpholide = C1CN(*)CCO1; NMeA = CN[C@@H](C)C(=O)O; Ac5c = NC1(C(=O)O)CCCC1; Aze = O=C(O)[C@@H]1CCN1; Ac4c = NC1(C(=O)O)CCC1; Sar = CNCC(=O)O
What was measured:
[1] = target: GDP-bound NRAS wild-type protein (Homo sapiens, UniProt P01111); assay: Binding to NRAS by surface plasmon resonance (SPR), Single Cycle Kinetics; conditions: SPR, GDP-bound NRAS wild-type protein vs GDP-bound KRAS wild-type protein
Chain of GDP-bound NRAS wild-type protein (P01111 whole entry): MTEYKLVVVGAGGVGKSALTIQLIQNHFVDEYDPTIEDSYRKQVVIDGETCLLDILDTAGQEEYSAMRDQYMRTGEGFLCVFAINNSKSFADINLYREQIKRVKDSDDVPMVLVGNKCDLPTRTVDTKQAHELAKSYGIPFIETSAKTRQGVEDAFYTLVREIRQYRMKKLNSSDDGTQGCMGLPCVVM

[2] = target: GDP-bound KRAS wild-type protein (Homo sapiens, UniProt P01116); assay: Binding to KRAS by surface plasmon resonance (SPR), Single Cycle Kinetics; conditions: GDP-bound KRAS wild-type protein, read-out: KRAS KD
Chain of GDP-bound KRAS wild-type protein (P01116 whole entry): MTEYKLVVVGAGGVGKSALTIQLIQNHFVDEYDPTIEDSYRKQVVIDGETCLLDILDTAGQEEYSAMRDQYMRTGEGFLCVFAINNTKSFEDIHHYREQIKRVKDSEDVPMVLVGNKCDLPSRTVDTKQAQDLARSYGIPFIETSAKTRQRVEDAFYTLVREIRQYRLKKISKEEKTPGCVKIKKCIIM

[3] = target: GDP-bound HRAS wild-type protein (Homo sapiens, UniProt P01112); assay: Binding to HRAS by surface plasmon resonance (SPR), Single Cycle Kinetics; conditions: SPR, GDP-bound HRAS wild-type protein vs GDP-bound KRAS wild-type protein
Chain of GDP-bound HRAS wild-type protein (P01112 whole entry): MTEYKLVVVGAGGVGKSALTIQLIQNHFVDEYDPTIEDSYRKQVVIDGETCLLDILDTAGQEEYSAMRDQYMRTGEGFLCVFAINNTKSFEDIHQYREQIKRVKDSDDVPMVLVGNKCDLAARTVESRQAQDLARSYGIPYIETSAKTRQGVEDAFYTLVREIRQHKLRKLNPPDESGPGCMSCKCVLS

[4] = SPR Single Cycle Kinetics, 1:1 binding model

Row | Structure (SMILES) | NRAS/KRAS (ratio of KD value for NRAS to KD value for KRAS) [1] | HRAS/KRAS (ratio of KD value for HRAS to KD value for KRAS) [3] | Kd [2, 4] | also measured
1 | CCO[C@@H]1C[C@H]2C(=O)NC3(CCC3)C(=O)N(C)[C@@H](C3CCCC3)C(=O)N(C)[C@H](C(=O)N(C)C)CC(=O)N(C)[C@@H](CC(C)C)C(=O)N[C@@H]([C@@H](C)CC)C(=O)N3CC[C@H]3C(=O)N(C)[C@H]3CC(C)=CCN(C3=O)[C@@H](Cc3ccc(C(F)(F)F)cc3)C(=O)N(C)CC(=O)N[C@@H](CCc3cc(F)c(C(F)(F)F)c(F)c3)C(=O)N2C1 [PP1033] | C (A compound having a KD ratio of 0.1 or more and less than 3 is denoted as C) | C (A compound having a KD ratio of 0.1 or more and less than 3 is denoted as C) |  | Kd ([2]; SPR, Single Cycle Kinetics): 0.43 nM
2 | CCC[C@H]1C(=O)N[C@@H]([C@@H](C)CC)C(=O)N(C)CC(=O)N(C)CC(=O)N(CCC)[C@@H](Cc2ccc(C(F)(F)F)cc2)C(=O)N(C)CC(=O)N[C@@H](CCc2ccc(C(F)(F)F)c(Cl)c2)C(=O)N2CC(F)(F)C[C@H]2C(=O)NC2(CCCC2)C(=O)N(C)[C@@H](C2CCCC2)C(=O)N(C)[C@H](C(=O)N2CCOCC2)CC(=O)N1C [PP0201] ([NMeNva]I[Sar][Sar][NPrPhe(4-CF3)][Sar][hPhe(3-Cl-4-CF3)][Pro(4,4-F2)][Ac5c][NMeGly(cPent)][NMeD]-Morpholide; lactam N-11) | B (a compound having 3 or more and less than 10 is denoted as B) | C (A compound having a KD ratio of 0.1 or more and less than 3 is denoted as C) | 0.06 nM | 
3 | CCCN1C(=O)[C@@H]2CCN2C(=O)[C@H](C)N(C)C(=O)[C@H]([C@@H](C)CC)NC(=O)[C@H](CC(C)C)N(C)C(=O)C[C@@H](C(=O)N2CCOCC2)N(C)C(=O)[C@H](C2CCCC2)N(C)C(=O)C2(CCCC2)NC(=O)[C@@H]2C[C@@H](OCC)CN2C(=O)[C@H](CCc2ccc(C(F)(F)F)c(Cl)c2)NC(=O)CN(C)C(=O)[C@@H]1Cc1ccc(C(F)(F)F)cc1 [PP0228] ([NMeL]I[NMeA][Aze][NPrPhe(4-CF3)][Sar][hPhe(3-Cl-4-CF3)][Hyp](Et)[Ac5c][NMeGly(cPent)][NMeD]-Morpholide; lactam N-11) | C (A compound having a KD ratio of 0.1 or more and less than 3 is denoted as C) | B (a compound having 3 or more and less than 10 is denoted as B) | 0.037 nM | 
4 | CCO[C@@H]1C[C@H]2C(=O)NC3(CCC3)C(=O)N(C)[C@@H](C(CC)CC)C(=O)N(C)C(C(C)C)CC(=O)N(C)[C@@H](CC3CC3)C(=O)N[C@@H]([C@@H](C)CC)C(=O)N(C)CC(=O)N(C)[C@H]3C/C=C\CCN(C3=O)[C@@H](Cc3ccc(C(F)(F)F)cc3)C(=O)N(C)CC(=O)N[C@@H](CCc3cc(F)c(C(F)(F)F)c(F)c3)C(=O)N2C1 (stereo partly drawn) [PP1595] |  |  |  | NRAS/KRAS (ratio of KD value for NRAS to KD value for KRAS) ([1]; KD ratio class): A (a compound having 10 or more and less than 20 is denoted as A); Kd ([2]; SPR, Single Cycle Kinetics, 1:1 binding model): 2.3 nM; HRAS/KRAS (ratio of KD value for HRAS to KD value for KRAS) ([3]; KD ratio class): A (a compound having 10 or more and less than 20 is denoted as A)
5 | CCCN1C(=O)[C@@H]2CCN2C(=O)[C@H](C)N(C)C(=O)[C@H]([C@@H](C)CC)NC(=O)[C@H](CC(C)C)N(C)C(=O)C[C@@H](C(=O)N(C)C)N(C)C(=O)[C@H](C2CCCC2)N(C)C(=O)C2(CCC2)NC(=O)[C@@H]2CCCN2C(=O)[C@H](CCc2ccc(C(F)(F)F)c(Cl)c2)NC(=O)CN(C)C(=O)[C@@H]1Cc1ccc(C(F)(F)F)cc1 [PP0435] ([NMeL]I[NMeA][Aze][NPrPhe(4-CF3)][Sar][hPhe(3-Cl-4-CF3)]P[Ac4c][NMeGly(cPent)][NMeD]-NMe2; lactam N-11) |  |  | 0.047 nM | NRAS/KRAS (ratio of KD value with respect to NRAS to KD value with respect to KRAS) [1]: C (A compound having a KD ratio of 0.1 or more and less than 3 is denoted as C); HRAS/KRAS (ratio of KD value with respect to HRAS to KD value with respect to KRAS) [3]: C (A compound having a KD ratio of 0.1 or more and less than 3 is denoted as C)

From patent US20240158446A1, “CYCLIC COMPOUND HAVING SELECTIVE INHIBITORY ACTION ON KRAS OVER HRAS AND NRAS” (CHUGAI SEIYAKU KABUSHIKI KAISHA, priority 2021, published 2024)
